# Measured values reported in US20070275904A1, “CONJUGATES OF AZIRIDINYL-EPOTHILONE ANALOGS AND PHARMACEUTICAL COMPOSITIONS COMPRISING SAME” (BRISTOL-MYERS SQUIBB COMPANY, priority 2006, published 2007).
# Read-outs that look alike come from different tables or passages of the source.
# Columns and labels:
# [1] = tested on: clonogenic KB cancer cells; assay: Clonogenic cell survival (colony formation) assay, KB cells; assay type: cell-based, human; conditions: FIG. 3; for fold by which compound G is more potent than the named compound (IC90): KB cells, 17 hours exposure
# Protocol: Cancer cells were seeded at 3.0E+05 cells in a T75 flask with 10 ml of RPMI1640 media, free of folic acid, and containing 10% fetal bovine serum and 25 mM HEPES. Cells were grown in a 37° C. incubator containing 5% CO2 for 2 days. On day 2, supernatants were removed from the flasks, and the flasks were divided into 2 groups. One group of cells were incubated with 5 ml of media containing […] of folic acid (Sigma) for 30 minutes and the others were grown in 5 ml of media without added folic acid. Cells were then treated with 20 nM of epothilone, epothilone analog, conjugated epothilone, or conjugated epothilone analog for one hour. At the end of the incubation, the drugs were removed from the flasks and the cells were washed with PBS buffer 3×. After washing, 5 ml of complete media were added into each flask, and the cell was grown in the CO2 incubator for 23 hours. The next morning, the cells were removed from the flasks by trypsinization, cell numbers were determined, and then cells were plated in a 6 well plates. Ten days after plating, colonies were stained with crystal violet and counted. The surviving fractions were determined.
# This is important because it is the aziridine epothilone analog, e.g., Compound G, that mediates the antitumor effects upon release from folic acid. […] The concentration needed to kill 90% of clonogenic KB cancer cells (IC90) was determined after a drug exposure duration of 17 hours.
# [2] = tested on: HCT116 colon carcinoma cell line; assay: cells; assay type: cell-based, human; conditions: read-out: HCT116 IC50
# Protocol: (§1) In vitro cytotoxicity was assessed in tumor cells using a tetrazolium-based colorimetric assay which takes advantage of the metabolic conversion of MTS (3-(4,5-dimethylthiazol-2-yl)-5-(3-carboxymethoxyphenyl)-2-([…])-2H-tetrazolium, inner salt) to a reduced form that absorbs light at 492 nm. Cells were seeded 24 hr prior to addition of the epothilone, epothilone analog, conjugated epothilone, or conjugated epothilone analog. Following a 72 hour incubation at 37° C. with serially diluted compound, MTS, in combination with the electron coupling agent phenazine methosulfate, was added to the cells. The incubation was continued for 3 hours, then the absorbancy of the medium at 492 nm was measured with a spectrophotometer to obtain the number of surviving cells relative to control populations. The results are expressed as median cytotoxic concentrations (IC50 values).
# (§2) Other epothilone analogs, e.g., aziridinyl epothilones, are known in the art (see, e.g., U.S. Pat. No. 6,399,638; Regueiro-Ren, A, et al. (2001) Org. Letters. 3:2693-96) and show potent antitumor cytotoxicity. For example, an MTS assay that compared the relative cytotoxic potency of a number of epothilone analogs against a pair of taxane-resistant cancer cell lines (HCTVM46 and […]) was conducted (see Table 1). HCTVM46 is a human colon carcinoma cell line derived from the sensitive HCT116 parent line, and is resistant to taxanes due to overexpression of the 170 kD p-glyprotein drug efflux transporter. A2780Tax is a human ovarian carcinoma cell line derived from the parent A2780 line, and is resistant to paclitaxel as a result of a mutation in the tubulin amino acid sequence that impairs the ability of paclitaxel to bind.
# (§3) As is shown in Table 1, various aziridinyl epothilone analogs (Compounds CC-EE) show potent antitumor activity against both the HCT116 colon and A2780 ovarian carcinoma cell lines, compared to other known antitumor agents, e.g., paclitaxel, compound AA, and epothilone B.
# [3] = tested on: A2780 ovarian carcinoma cell line; assay: cells; assay type: cell-based, human; conditions: read-out: A2780 IC5
# Protocol: as §1, §2, §3
# Phase II clinical trials = conditions: in vivo
# [4] = tested on: A2780Tax human ovarian carcinoma cell line; assay: In vitro MTS assay, paclitaxel-resistant A2780Tax versus A2780; assay type: cell-based
# Protocol: as §1, §2
# [5] = tested on: HCT116VM46 (HCTVM46) human colon carcinoma cell line; assay type: cell-based; conditions: R/S ratio = HCT116 IC50/HCT116VM46IC50 as printed
# Protocol: as §1, §2
# [6] = biological target: T1, FR expressed on KB tumor cells (Homo sapiens, UniProt P15328); assay: Displacement of radiolabeled folic acid from FR on KB tumor cells; assay type: binding; conditions: compared to folic acid, RA of folic acid=1.0
# T1 construct: FR expressed on KB tumor cells grown to confluence; endogenous in cells; host or cells: KB tumor cells
# T1 sequence (P15328 25-234): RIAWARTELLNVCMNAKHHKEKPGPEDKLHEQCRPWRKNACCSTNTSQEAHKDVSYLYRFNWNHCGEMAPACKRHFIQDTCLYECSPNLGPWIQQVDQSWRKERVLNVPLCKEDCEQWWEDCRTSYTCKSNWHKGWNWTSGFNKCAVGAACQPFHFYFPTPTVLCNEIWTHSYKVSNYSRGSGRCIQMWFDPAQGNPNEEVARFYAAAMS
# Protocol: The binding of folate conjugates of Compound AA to FR was determined in an assay that measures displacement of radiolabeled folic acid from FR expressed on KB tumor cells grown to confluence.
# FRα(+) 98M109 tumors = assay: FRα(+) 98M109 tumor model, competition with a folate analog; assay type: in vivo, mice; conditions: folate analog at 20-fold excess of the dose of compound J; FIG. 6
# Source text: Female CD2F1 mice (Harlan Sprague-Dawley Inc., 20-22 g) maintained in a controlled environment and provided with water and food ad libitum were used in these studies. The murine FRα(−) Madison 109 (M109) lung carcinoma (Marks et al., 1977) and the FR-expressing (FRα(+)) 98M109 variant were used to evaluate the efficacy of the epothilone, epothilone analog (e.g., epothilone derivative), folate-epothilone conjugate, or folate-epothilone analog conjugate. In addition, the human head and neck epidermoid carcinoma KB grown in nude mice was also used for this purpose. […]
# (§4) Tumor response was determined by measurement of tumors with a caliper twice a week, until the tumors reached a predetermined “target” size of 1 gm. […]
# (§5) Antitumor activity was evaluated at the maximum tolerated dose (MTD) which is defined as the dose level immediately […] which excessive toxicity (i.e. more than one death) occurred. When death occurred, the day of death was recorded. […]
# (§6) To estimate tumor cell kill, the tumor volume doubling time (TVDT) was first calculated with the formula: TVDT=Median time (days) for control tumors to reach target size−Median time (days) for control tumors to reach half the target size And, Log cell kill=T−C÷(3.32×TVDT) Statistical evaluations of data were performed using Gehan's generalized Wilcoxon test.
# [7] = FRα(−) M109 parent tumor model in mice; assay type: in vivo; conditions: female, CD2F1, mouse, in vivo, M109 model, IV, read-out: maximum tolerated dose (MTD)
# Source text: (§7) Female CD2F1 mice (Harlan Sprague-Dawley Inc., 20-22 g) maintained in a controlled environment and provided with water and food ad libitum were used in these studies. The murine FRα(−) Madison 109 (M109) lung carcinoma (Marks et al., 1977) and the FR-expressing (FRα(+)) 98M109 variant were used to evaluate the efficacy of the epothilone, epothilone analog (e.g., epothilone derivative), folate-epothilone conjugate, or folate-epothilone analog conjugate. In addition, the human head and neck epidermoid carcinoma KB grown in nude mice was also used for this purpose.
# (§8) For administration of epothilones or epothilone analogs to mice, an excipient consisting of the following was used: CREMOPHOR®/ethanol/water (1:1:8, v/v). The compounds were first dissolved in a mixture of CREMOPHOR®/ethanol (50:50). Final dilution to the required dosage strength was made less than 1 hr before drug administration. Mice were administered the agents by bolus IV injection through the tail vein. Folate-epothilone conjugates or folate-epothilone analog conjugates were prepared in sterile phosphate buffered saline and administered to mice by IV bolus injection through the tail vein at a volume of 0.01 mL/g of mice. Treatment of each animal was based on individual body weight.
# (§9) The required number of animals needed to detect a meaningful response were pooled at the start of the experiment and each was given a subcutaneous inoculation of a tumor brei (2% w/v). Tumors were allowed to grow for 4 days. On the fourth day, animals were evenly distributed to various treatment and control groups. Treated animals were checked daily for treatment related toxicity/mortality. Each group of animals was weighed before the initiation of treatment (Wt1) and then again following the last treatment dose (Wt2). The difference in body weight (Wt2−Wt1) provides a measure of treatment-related toxicity.
# (§10) Tumor response was determined by measurement of tumors with a caliper twice a week, until the tumors reached a predetermined “target” size of 1 gm. Tumor weights (mg) were estimated from the formula: Tumor weight=(length×width^2)÷2
# as §5, §6
# [8] = tested on: FRα(−) M109 murine lung carcinoma; assay: FRα(−) M109 parent tumor model in mice; assay type: in vivo; conditions: IV bolus, FIG. 5
# Source text: as §7, §8, §9, §10, §5, §6
# [9] = tested on: KB nasopharyngeal epidermoid carcinoma xenografts; assay: KB in vivo FRα(+) tumor model, xenografts in nude mice; conditions: FIG. 4
# Source text: as §7
# as §8, with “weight. […]” for “weight.”
# as §4, §5, §6
# [10] = as above; conditions: mouse, in vivo; KB model, nude mice, IV; read-out: maximum tolerated dose (MTD)
# Source text: as §7
# as §8, with “weight. […]” for “weight.”
# as §4, §5, §6
# [11] = Homo sapiens, HCT-116, Mean IC50 ± SD from four separate experiments, MTS, 72 hour incubation
# [12] = Mean IC50 ± SD from four separate experiments, MTS, 72 hour incubation
compound,measurement,setting,value
"C/C(=C\c1csc(C)n1)[C@@H]1CC2[C@@H](CCC[C@H](C)[C@H](O)[C@@H](C)C(=O)C(C)(C)[C@@H](O)CC(=O)O1)[N@@]2CCO (relative stereo) [Compound G, [1S-[1R*,3R*(E),7R*,10S*,11R*,12R*,16S*]]-7,11-Dihydroxy-17-[2-hydroxyethyl]-8,8,10,12-tetramethyl-3-[1-methyl-2-(2-methyl-4-thiazolyl)ethenyl]-4-oxa-17-azabicyclo[14.1.0]heptadecane-5,9-dione]","IC90, concentration needed to kill 90% of clonogenic KB cancer cells",[1]; drug exposure duration of 17 hours,4.3 nM
C/C(=C\c1csc(CN)n1)[C@@H]1CC2O[C@]2(C)CCC[C@H](C)[C@H](O)[C@@H](C)C(=O)C(C)(C)[C@@H](O)CC(=O)O1 (stereo partly drawn) [Compound AA],IC50,[2]; [11],1.2 ± 0.3 nM
same,IC50,"[3]; Homo sapiens, A2780, Mean IC50 ± SD from four separate experiments, MTS, 72 hour incubation",1.1 ± 0.4 nM
same,fold by which compound G is more potent than the named compound (IC90),[1],~4 fold
same,activity in Phase II clinical trials,Phase II clinical trials,has activity
same,R/S Ratio (A2780),[4],3
same,R/S Ratio (HCT116),[5],14.8
C/C(=C\c1csc(C)n1)C1C[C@@H]2N[C@@H]2CCC[C@H](C)[C@H](O)[C@@H](C)C(=O)C(C)(C)[C@@H](O)CC(=O)O1 (stereo partly drawn) [Compound CC],IC50,"[2]; Homo sapiens, HCT-116, 72 h",4.2 ± 2.8 nM
same,IC50,"[3]; Homo sapiens, A2780, 72 h",3.4 ± 1.5 nM
same,fold by which compound G is more potent than the named compound (IC90),[1],~2 fold
same,R/S Ratio (A2780),[4],4.7
same,R/S Ratio (HCT116),[5],3.1
C/C(=C\c1csc(C)n1)[C@@H]1C[C@H]2[C@@H](CCC[C@H](C)[C@H](O)[C@@H](C)C(=O)C(C)(C)[C@@H](O)CC(=O)O1)N2CCOC(=O)OCCSSC[C@H](NC(=O)[C@H](CC(=O)O)NC(=O)[C@H](CCCNC(=N)N)NC(=O)[C@H](CC(=O)O)NC(=O)CC[C@H](NC(=O)c1ccc(NCc2cnc3nc(N)[nH]c(=O)c3n2)cc1)C(=O)O)C(=O)O (stereo partly drawn) [Compound J],relative affinity (RA) for folate receptor,[6],0.77
same,effect of co-administered folate analog on antitumor effects,FRα(+) 98M109 tumors,protect FRα(+) 98M109 tumors from the antitumor effects of compound J
same,MTD,[7],2.4 µmol/kg
same,antitumor activity in FRα(−) M109 parent tumor model,[8],poor activity at all dose levels tested
same,toxicity at the two dose levels below MTD,[9]; KB model,minimal toxicity
same,antitumor effects compared at the MTDs,[9]; versus ixabepilone,superior antitumor effects than ixabepilone
C/C(=C\c1csc(C)n1)C1C[C@H]2[C@@H](CCC[C@H](C)[C@H](O)[C@@H](C)C(=O)C(C)(C)[C@@H](O)CC(=O)O1)N2C (stereo partly drawn) [DD],IC50,"[2]; Homo sapiens, HCT-116, 72 h",0.37 ± 0.13 nM
same,IC50,"[3]; Homo sapiens, A2780, 72 h",0.25 ± 0.06 nM
same,R/S Ratio (A2780),[4],4.1
same,R/S Ratio (HCT116),[5],0.6
C/C(=C\c1csc(C)n1)[C@@H]1C[C@@H]2O[C@]2(C)CCC[C@H](C)[C@H](O)[C@@H](C)C(=O)C(C)(C)[C@@H](O)CC(=O)O1 [Epothilone B],IC50,[2]; [12],0.4 ± 0.13 nM
same,IC50,[3]; [12],0.23 ± 0.09 nM
same,R/S Ratio (A2780),[4],2.5
same,R/S Ratio (HCT116),[5],0.5
Nc1nc2ncc(CNc3ccc(C(=O)N[C@@H](CCC(=O)O)C(=O)O)cc3)nc2c(=O)[nH]1 [folic acid],relative affinity (RA) for folate receptor,[6],1.0
C/C(=C\c1csc(C)n1)[C@@H]1C[C@@H]2O[C@]2(C)CCC[C@H](C)[C@H](O)[C@@H](C)C(=O)C(C)(C)[C@@H](O)CC(=O)N1 [ixabepilone],fold by which compound G is more potent than the named compound (IC90),[1],~6 fold
same,MTD,[7],5 µmol/kg
same,antitumor activity in FRα(−) M109 parent tumor model,[8],active at its MTD
same,MTD,[10],5 µmol/kg
CC(=O)O[C@H]1C(=O)[C@@]2(C)[C@H]([C@H](OC(=O)c3ccccc3)[C@]3(O)C[C@H](OC(=O)[C@H](O)[C@@H](NC(=O)c4ccccc4)c4ccccc4)C(C)=C1C3(C)C)[C@]1(OC(C)=O)CO[C@@H]1C[C@@H]2O [paclitaxel],IC50,[2]; [11],3.3 ± 1 nM
same,R/S Ratio (A2780),[4],22.1
